Biological target: T1, ER (Homo sapiens, UniProt P03372)
T1 construct: host or cells: T47D and MCF7 human breast cancer cells
T1 sequence (P03372 1-595): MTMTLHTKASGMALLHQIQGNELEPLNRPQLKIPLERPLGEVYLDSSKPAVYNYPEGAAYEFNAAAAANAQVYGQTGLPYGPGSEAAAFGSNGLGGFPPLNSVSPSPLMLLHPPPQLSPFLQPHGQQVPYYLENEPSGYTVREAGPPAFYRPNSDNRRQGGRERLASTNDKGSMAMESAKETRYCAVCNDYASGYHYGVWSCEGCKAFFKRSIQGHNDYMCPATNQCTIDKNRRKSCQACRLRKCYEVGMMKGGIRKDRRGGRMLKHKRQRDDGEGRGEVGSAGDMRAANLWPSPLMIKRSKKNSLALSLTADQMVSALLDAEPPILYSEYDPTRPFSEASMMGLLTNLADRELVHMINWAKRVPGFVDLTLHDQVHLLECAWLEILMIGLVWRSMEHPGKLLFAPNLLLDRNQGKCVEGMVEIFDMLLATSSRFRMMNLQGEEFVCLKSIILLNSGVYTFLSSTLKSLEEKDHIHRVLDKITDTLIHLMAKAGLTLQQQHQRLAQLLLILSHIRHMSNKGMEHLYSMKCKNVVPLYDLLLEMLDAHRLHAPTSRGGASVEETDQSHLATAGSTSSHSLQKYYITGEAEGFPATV
Test: ER degradation activity, in-cell western blot analysis in T47D cells
Format: cell-based
Conditions: compounds 16 hours, Table A does not say whether T47D or MCF7, read-out: Potency (DC50)
How it was run: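 Read-out is near-infrared fluorescence from an in-cell western, expressed as ER percentage relative to untreated and DMSO controls taken as 100%. T47D breast cancer cells received compound for 16 h in 0.5% DMSO.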

Row | DC50 [nM] | Structure (SMILES)
1 | 10 to 100 | C[C@@H]1Cc2cc(O)ccc2[C@@H](c2c(F)cc(OC3CC4(CCN(C(=O)CN5Cc6cc7c(cc6C5)C(=O)N(C5CCC(=O)NC5=O)C7=O)CC4)C3)cc2F)N1CC(F)F (stereo partly drawn) [E 455, 6-(2-(2-(4-((1S,3R)-2-(2,2-difluoroethyl)-6-hydroxy-3-methyl-1,2,3,4-tetrahydroisoquinolin-1-yl)-3,5-difluorophenoxy)-7-azaspiro[3.5]nonan-7-yl)-2-oxoethyl)-2-(2,6-dioxopiperidin-3-yl)-6,7-dihydropyrrolo[3,4-f]isoindole-1,3(2H,5H)-dione]
2 | > 100 | C[C@@H]1Cc2cc(O)ccc2[C@H](c2c(F)cc(OC3CC4(CCN(C(=O)CN5Cc6cc7c(cc6C5)C(=O)N(C5CCC(=O)NC5=O)C7=O)CC4)C3)cc2F)N1CC(F)F (stereo partly drawn) [E 456, 6-(2-(2-(4-((1R,3R)-2-(2,2-difluoroethyl)-6-hydroxy-3-methyl-1,2,3,4-tetrahydroisoquinolin-1-yl)-3,5-difluorophenoxy)-7-azaspiro[3.5]nonan-7-yl)-2-oxoethyl)-2-(2,6-dioxopiperidin-3-yl)-6,7-dihydropyrrolo[3,4-f]isoindole-1,3(2H,5H)-dione]
3 | 10 to 100 | C[C@@H]1Cc2cc(O)ccc2[C@@H](c2c(F)cc(C(=O)N3CC4(CCN(C(=O)CN5Cc6cc7c(cc6C5)C(=O)N(C5CCC(=O)NC5=O)C7=O)CC4)C3)cc2F)N1CC(F)F (stereo partly drawn) [E 457, 6-(2-(2-(4-((1S,3R)-2-(2,2-difluoroethyl)-6-hydroxy-3-methyl-1,2,3,4-tetrahydroisoquinolin-1-yl)-3,5-difluorobenzoyl)-2,7-diazaspiro[3.5]nonan-7-yl)-2-oxoethyl)-2-(2,6-dioxopiperidin-3-yl)-6,7-dihydropyrrolo[3,4-f]isoindole-1,3(2H,5H)-dione]
4 | > 100 | C[C@@H]1Cc2cc(O)ccc2[C@H](c2c(F)cc(C(=O)N3CC4(CCN(C(=O)CN5Cc6cc7c(cc6C5)C(=O)N(C5CCC(=O)NC5=O)C7=O)CC4)C3)cc2F)N1CC(F)F (stereo partly drawn) [E 458, 6-(2-(2-(4-((1R,3R)-2-(2,2-difluoroethyl)-6-hydroxy-3-methyl-1,2,3,4-tetrahydroisoquinolin-1-yl)-3,5-difluorobenzoyl)-2,7-diazaspiro[3.5]nonan-7-yl)-2-oxoethyl)-2-(2,6-dioxopiperidin-3-yl)-6,7-dihydropyrrolo[3,4-f]isoindole-1,3(2H,5H)-dione]
5 | < 10 | C[C@@H]1Cc2cc(O)ccc2[C@@H](c2ccc(C(=O)N3CC4(CCN(C(=O)CN5Cc6cc7c(cc6C5)C(=O)N(C5CCC(=O)NC5=O)C7=O)CC4)C3)cc2)N1CC(F)F (stereo partly drawn) [E 459, 6-(2-(2-(4-((1R,3R)-2-(2,2-difluoroethyl)-6-hydroxy-3-methyl-1,2,3,4-tetrahydroisoquinolin-1-yl)benzoyl)-2,7-diazaspiro[3.5]nonan-7-yl)-2-oxoethyl)-2-(2,6-dioxopiperidin-3-yl)-6,7-dihydropyrrolo[3,4-f]isoindole-1,3(2H,5H)-dione]
6 | 10 to 100 | C[C@@H]1Cc2cc(O)ccc2[C@H](c2ccc(C(=O)N3CC4(CCN(C(=O)CN5Cc6cc7c(cc6C5)C(=O)N(C5CCC(=O)NC5=O)C7=O)CC4)C3)cc2)N1CC(F)F (stereo partly drawn) [E 460, 6-(2-(2-(4-((1S,3R)-2-(2,2-difluoroethyl)-6-hydroxy-3-methyl-1,2,3,4-tetrahydroisoquinolin-1-yl)benzoyl)-2,7-diazaspiro[3.5]nonan-7-yl)-2-oxoethyl)-2-(2,6-dioxopiperidin-3-yl)-6,7-dihydropyrrolo[3,4-f]isoindole-1,3(2H,5H)-dione]
7 | < 10 | COc1c2c(cc3c1CN(C1CCC(=O)NC1=O)C3=O)CN(CC(=O)N1CCC3(CC1)CCN(c1cc(F)c([C@@H]4c5ccc(O)cc5C[C@@H](C)N4CC(F)F)c(F)c1)CC3)C2 (stereo partly drawn) [E 461, 3-(6-(2-(9-(4-((1S,3R)-2-(2,2-difluoroethyl)-6-hydroxy-3-methyl-1,2,3,4-tetrahydroisoquinolin-1-yl)-3,5-difluorophenyl)-3,9-diazaspiro[5.5]undecan-3-yl)-2-oxoethyl)-4-methoxy-1-oxo-3,5,6,7-tetrahydropyrrolo[3,4-f]isoindol-2(1H)-yl)piperidine-2,6-dione]
8 | 10 to 100 | C[C@@H]1Cc2cc(O)ccc2[C@@H](c2ccc(N3CCC4(CCN(C(=O)CN5Cc6cc7c(cc6C5)C(=O)N(C5CCC(=O)NC5=O)C7=O)CC4)CC3)cc2)N1c1ccc(F)cc1 (stereo partly drawn) [E 462, 2-(2,6-dioxopiperidin-3-yl)-6-(2-(9-(4-((1R,3R)-2-(4-fluorophenyl)-6-hydroxy-3-methyl-1,2,3,4-tetrahydroisoquinolin-1-yl)phenyl)-3,9-diazaspiro[5.5]undecan-3-yl)-2-oxoethyl)-6,7-dihydropyrrolo[3,4-f]isoindole-1,3(2H,5H)-dione]
9 | < 10 | C[C@@H]1Cc2cc(O)ccc2[C@@H](c2c(F)cc(N3CCC(C(=O)N4CCC(N5Cc6cc7c(cc6C5)C(=O)N(C5CCC(=O)NC5=O)C7=O)CC4)CC3)cc2F)N1CC(F)F (stereo partly drawn) [E 463, 6-(1-(1-(4-((1S,3R)-2-(2,2-difluoroethyl)-6-hydroxy-3-methyl-1,2,3,4-tetrahydroisoquinolin-1-yl)-3,5-difluorophenyl)piperidine-4-carbonyl)piperidin-4-yl)-2-(2,6-dioxopiperidin-3-yl)-6,7-dihydropyrrolo[3,4-f]isoindole-1,3(2H,5H)-dione]
10 | > 100 | C[C@@H]1Cc2cc(O)ccc2[C@@H](c2c(F)cc(C(=O)N3CC4(CCC(CN5Cc6cc7c(cc6C5)C(=O)N(C5CCC(=O)NC5=O)C7=O)CC4)C3)cc2F)N1CC(F)F (stereo partly drawn) [E 464, 6-((2-(4-((1S,3R)-2-(2,2-difluoroethyl)-6-hydroxy-3-methyl-1,2,3,4-tetrahydroisoquinolin-1-yl)-3,5-difluorobenzoyl)-2-azaspiro[3.5]nonan-7-yl)methyl)-2-(2,6-dioxopiperidin-3-yl)-6,7-dihydropyrrolo[3,4-f]isoindole-1,3(2H,5H)-dione]
11 | > 100 | C[C@@H]1Cc2cc(O)ccc2[C@@H](c2c(F)cc(C(=O)N3CCC4(CC3)CC(CN3Cc5cc6c(cc5C3)C(=O)N(C3CCC(=O)NC3=O)C6=O)C4)cc2F)N1CC(F)F (stereo partly drawn) [E 465, 6-((7-(4-((1S,3R)-2-(2,2-difluoroethyl)-6-hydroxy-3-methyl-1,2,3,4-tetrahydroisoquinolin-1-yl)-3,5-difluorobenzoyl)-7-azaspiro[3.5]nonan-2-yl)methyl)-2-(2,6-dioxopiperidin-3-yl)-6,7-dihydropyrrolo[3,4-f]isoindole-1,3(2H,5H)-dione]
12 | > 100 | C[C@@H]1Cc2cc(O)ccc2[C@@H](c2c(F)cc(N3CCC(CN4CCC(N5Cc6cc7c(cc6C5)C(=O)N(C5CCC(=O)NC5=O)C7=O)CC4)CC3)cc2F)N1CC(F)F (stereo partly drawn) [E 466, 6-(1-((1-(4-((1S,3R)-2-(2,2-difluoroethyl)-6-hydroxy-3-methyl-1,2,3,4-tetrahydroisoquinolin-1-yl)-3,5-difluorophenyl)piperidin-4-yl)methyl)piperidin-4-yl)-2-(2,6-dioxopiperidin-3-yl)-6,7-dihydropyrrolo[3,4-f]isoindole-1,3(2H,5H)-dione]
13 | 10 to 100 | C[C@@H]1Cc2c(ccc3[nH]ncc23)[C@@H](c2c(F)cc(N3CCC(C(=O)N4C5CCC4CC(N4Cc6cc7c(cc6C4)C(=O)N(C4CCC(=O)NC4=O)C7=O)C5)CC3)cc2F)N1CC(F)F (stereo partly shown) [E 469]

Source: patent US20240190880A1 (THE REGENTS OF THE UNIVERSITY OF MICHIGAN, priority 2021, published 2024)
